{
  "source": "patent US9827216B2",
  "about": "“Nutritional support to prevent and/or mitigate bone marrow toxicity from a cancerous tumor” (Nestec S.A., priority 2008, dated 2017)",
  "key": {"[1]": {"tested_on": "tongue and/or esophageal tumors", "experiment": "Carcinogen induction of tongue and/or esophageal tumors", "assay_type": "in vivo, CB6F1-Tg rasH2@Jcl mice", "conditions": "carcinogen-induced", "text": "Male CB6F1-Tg rasH2@Jcl mice (Tg) at 8 weeks of age are obtained and maintained in plastic cages. They are all allowed free access to a powdered basal diet of CRF (Charles River Formula)-1. A carcinogen, 4-nitroquinoline 1-oxide is used to induce tongue and/or esophageal tumors in this study."}, "[2]": {"tested_on": "γδ T cells", "conditions": "acid hydrolysed, diluted in media; peripheral blood mononuclear cells; (5%-75%); cited from earlier work"}, "[3]": {"tested_on": "red blood cell, white blood cell and immune cell populations", "experiment": "Haematological evaluation and flow cytometric analysis, test diets with chemotherapy (Example 2)", "assay_type": "in vivo, mice", "conditions": "for Global lymphocyte population: following chemotherapy, supplemented diets", "procedure": "(§1) The animals were distributed into 7 different group diets. There was a control group that received the diet AIN 93 for adult rodents (maintenance). Test diets were administered in doses appropriate to the animal model: (a) Ctrl diet were supplemented with 1% (w/w) L-arginine, (b) 25% of the protein was replaced by glutamine, (c) 1% (w/w) L-citrulline, (d) 1 g/Kg body weight with active hexose correlated compound, (e) 20 mg/day of RNA nucleotides and (f) 25 mg/day of lactoferrin. […] Control animals without chemotherapeutic treatment were run in parallel for all tested diets. Body weight was assessed every two days. Blood samples were obtained at day 2, 4 and 10 after the chemo-treatment and at sacrifice (14 or 28 days). An autopsy was performed and tumor mass was assessed."}, "[4]": {"tested_on": "MCA-OVA 1×10^6 tumor cells", "experiment": "Tumor growth evaluation, test diets with or without chemotherapy (Example 2)", "assay_type": "in vivo, mice", "procedure": "The animals were distributed into 7 different group diets. There was a control group that received the diet AIN 93 for adult rodents (maintenance). […] Control animals without chemotherapeutic treatment were run in parallel for all tested diets. Body weight was assessed every two days. Blood samples were obtained at day 2, 4 and 10 after the chemo-treatment and at sacrifice (14 or 28 days). An autopsy was performed and tumor mass was assessed.\nMethylcholanthrene (MCA) induced sarcoma cell line expressing the exogenous antigen ovalbumin (OVA) was grown in DMEM or RPMI 1640 supplemented with 2 mM L-glutamine, 10 mM HEPES, 20 μM 2-mercaptoethanol, 150 U/mL streptomycin, 200 U/mL penicillin, and 10% heat-inactivated FBS. 1×10^6 tumor cells were injected in the flank of the mice 6 days prior to the chemotherapy.\nGrowth of tumors was monitored every 2 d by using calipers, and tumor volume was calculated by using the formula length×width×width×0.52 mm^3."}, "[5]": {"tested_on": "immune cells", "experiment": "Nutritional intervention on immune cells in tumor burdened animals with and without chemotherapy (FIG. 11)", "assay_type": "in vivo", "conditions": "during the second phase (tumor-induced toxicity)", "text": "FIG. 11 illustrates a graph of the effect of nutritional intervention on immune cells in tumor burdened animals with and without chemotherapy in accordance with an embodiment of the present disclosure."}, "[6]": {"tested_on": "red blood cell, white blood cell and immune cell populations", "experiment": "Haematological evaluation and flow cytometric analysis of tumor-bearing mice after chemotherapy (Example 1)", "assay_type": "in vivo", "conditions": "after the chemotherapy"}, "[7]": {"experiment": "Body weight of tumor-bearing mice on test diets with chemotherapy (Example 2)", "assay_type": "in vivo", "conditions": "maximal dose (10 mg/kg)", "procedure": "as §1"}, "[8]": {"experiment": "Body weight of tumor-bearing mice after chemotherapy (Example 1)", "conditions": "maximal dose (10 mg/kg), of the initial body weight", "quoted_text": "Inbred eight-week-old C57BL/6 (H-2b) mice were used in the experiments. Mice were inoculated subcutaneously (s.c.) on the left flank with 1×10^6 tumor cells, and tumor growth was monitored every 2 days by caliper measurement. 6 days after the tumor inoculation the animals were treated either with oxaliplatin or doxorubicin. Tumor growth was monitored every two days after the chemotherapeutic treatment and they were sacrificed after two weeks of tumor implantation. Some experiments were carried out until 28 days post-chemo to better assess tumor growth.\nBody weight was assessed every two days until sacrifice."}, "[9]": {"tested_on": "NK cell", "conditions": "about 750 mg per day for two weeks, cited from earlier work"}},
  "data": [
    {"compound": "O=[N+]([O-])c1cc[n+]([O-])c2ccccc12", "note": "[4-nitroquinoline 1-oxide]", "values": [
      {"measurement": "mice developing tumors in the esophagus", "setting": "[1]", "result": 60, "unit": "%"},
      {"measurement": "mice developing tumors on the tongue", "setting": "[1]", "result": 100, "unit": "%"}
    ]},
    {"compound": "CCNC(=O)CC[C@H](N)C(=O)O", "note": "[L-theanine]", "values": [
      {"measurement": "expansion of γδ T cells", "setting": "[2]", "result": 15, "unit": "fold"}
    ]},
    {"compound": "N=C(N)NCCC[C@H](N)C(=O)O", "note": "[arginine, L-arginine]", "values": [
      {"measurement": "loss of CD3+ cells", "setting": "[3]; around 10 days post-chemotherapy, supplemented diet", "result": "partially modulated"},
      {"measurement": "fall of erythrocytes after chemotherapy", "setting": "[3]; diet supplemented 1% (w/w), between days 6 and 10 post-chemo, vs control diet and other treatments (FIG. 3)", "result": "prevented the marked fall of erythrocytes"},
      {"measurement": "tumor size", "setting": "[4]; combination with the chemotherapy treatment vs chemotherapy alone (FIG. 4)", "result": "further reduced the tumor size"},
      {"measurement": "progression of the implanted tumor", "setting": "[4]; supplemented diet compared to other groups", "result": "delayed progression"},
      {"measurement": "immune cell population / concentration", "setting": "[5]", "result": "increase immune cell concentration"}
    ]},
    {"compound": "NC(=O)NCCC[C@H](N)C(=O)O", "note": "[citrulline, L-citrulline]", "values": [
      {"measurement": "Global lymphocyte population", "setting": "[3]", "result": "less depressed"}
    ]},
    {"compound": "NC(=O)CC[C@H](N)C(=O)O", "note": "[glutamine]", "values": [
      {"measurement": "Global lymphocyte population", "setting": "[3]", "result": "less depressed"}
    ]},
    {"compound": "O=C1[O][Pt]2([NH][C@@H]3CCCC[C@H]3[NH]2)[O]C1=O", "note": "[oxaliplatin]", "values": [
      {"measurement": "white blood cell counts", "setting": "[6]", "result": "leukocyte counts that were higher that the baseline counts"},
      {"measurement": "Maximal weight loss", "setting": "[7]", "result": "around 15%"},
      {"measurement": "Maximal weight loss", "setting": "[8]", "result": "around 15%"}
    ]},
    {"compound": "vitamin E", "values": [
      {"measurement": "NKG2D expression", "setting": "[9]; all patients studied", "result": "small but consistent induction"},
      {"measurement": "NK cell cytolytic activity", "setting": "[9]; cancer patients", "result": "significantly improved"}
    ]}
  ]
}
